These results are taken from PubChem BioAssay (NCI).

Test systems include UACC-62 melanoma; OVCAR-8 ovarian; HS 578T breast; HT29 colon; LOX IMVI melanoma; BT-549 breast; PC-3 prostate; TK-10 renal; UO-31 renal; M14 melanoma; NCI-H23 lung; SR leukemia; HCT-15 colon; SN12C renal; SK-MEL-2 melanoma; RPMI-8226 leukemia; MDA-N.
Holding throughout (assay): growth of human tumour cells (NCI), 48 h

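Step 1: Grow cells in 96-well plates. Step 2: Expose to compound for 48 hours at 5 concentrations. Step 3: Interpolate endpoints linearly; if unreached, use highest concentration. TGI marks complete inhibition of growth.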

For the molecule `CCOC(=O)c1cc2cc(CSc3ccccc3)ccc2oc1=O`, the TGI in the experiment with UACC-62 melanoma, with OVCAR-8 ovarian, in the experiment on HS 578T breast, in the experiment with HT29 colon, with LOX IMVI melanoma and in the experiment on BT-549 breast was more than 100 µM in each case. For the same molecule, the TGI in the experiment with PC-3 prostate, in the experiment on TK-10 renal, with UO-31 renal, in the experiment on M14 melanoma, in the experiment with NCI-H23 lung and in the experiment with SR leukemia was more than 100 µM each time. The TGI in the experiment with HCT-15 colon, with SN12C renal, in the experiment with SK-MEL-2 melanoma, with RPMI-8226 leukemia and in the experiment on MDA-N was more than 100 µM in each case.
On to `O=S(=O)(O)Nc1ccc(-c2nc3ccccc3s2)cc1Cl`, for which the TGI with UACC-62 melanoma, in the experiment on OVCAR-8 ovarian, with HS 578T breast, in the experiment on HT29 colon, in the experiment on LOX IMVI melanoma and in the experiment on BT-549 breast was more than 100 µM in each case. The TGI in the experiment with PC-3 prostate, with TK-10 renal, in the experiment on UO-31 renal, in the experiment with M14 melanoma, in the experiment on NCI-H23 lung and in the experiment on SR leukemia was more than 100 µM in each case. The TGI in the experiment with HCT-15 colon, in the experiment with SN12C renal, in the experiment with SK-MEL-2 melanoma, with RPMI-8226 leukemia and in the experiment on MDA-N was more than 100 µM throughout.
Regarding `COC(=O)CC1(O)C(C=C(C)C)C(C(=O)OC)C(=O)C(C(=O)OC)C1C(=O)OC` (stereo unspecified), the TGI in the experiment on UACC-62 melanoma, in the experiment on OVCAR-8 ovarian, in the experiment with HS 578T breast, in the experiment with HT29 colon, with LOX IMVI melanoma and in the experiment with BT-549 breast was more than 100 µM in each case. Besides, the TGI with PC-3 prostate, with TK-10 renal, in the experiment with UO-31 renal, in the experiment on M14 melanoma, in the experiment on NCI-H23 lung and in the experiment on SR leukemia was more than 100 µM each time. Further, the TGI with HCT-15 colon, in the experiment on SN12C renal, in the experiment with SK-MEL-2 melanoma, in the experiment on RPMI-8226 leukemia and in the experiment with MDA-N was more than 100 µM each time.
For `Cc1ccnc2c1c(=O)c1ccccc1n2C`, the TGI in the experiment with UACC-62 melanoma was 41.4 µM; in the experiment on OVCAR-8 ovarian, more than 100 µM; in the experiment with HS 578T breast, 73.5 µM; in the experiment with HT29 colon it was 85.2 µM; with LOX IMVI melanoma, more than 100 µM; in the experiment on BT-549 breast, 81.9 µM. For the same molecule, the TGI in the experiment on PC-3 prostate was more than 100 µM; with TK-10 renal, 89.8 µM; in the experiment on UO-31 renal it was 36.5 µM; in the experiment on M14 melanoma, more than 100 µM; in the experiment with NCI-H23 lung, more than 100 µM; with SR leukemia it was more than 100 µM. Further, the TGI in the experiment with HCT-15 colon, with SN12C renal, in the experiment with SK-MEL-2 melanoma, in the experiment with RPMI-8226 leukemia and in the experiment on MDA-N was more than 100 µM throughout.
Consider `CCOC(=O)CC[C@@H](NC(=O)c1ccc(NCc2ccc3nc(OC)c(OC)nc3c2)cc1)C(=O)OCC`, for which the TGI in the experiment on UACC-62 melanoma is 32 µM; in the experiment on OVCAR-8 ovarian, more than 100 µM; with HS 578T breast it was more than 80.9 µM; in the experiment with HT29 colon, more than 100 µM; in the experiment on LOX IMVI melanoma it was more than 100 µM; with BT-549 breast, more than 100 µM. Besides, the TGI is more than 100 µM with PC-3 prostate; more than 100 µM in the experiment with TK-10 renal; more than 65.4 µM in the experiment on UO-31 renal; 32 µM in the experiment on M14 melanoma; more than 100 µM in the experiment on NCI-H23 lung; more than 87.4 µM in the experiment on SR leukemia. Besides, the TGI in the experiment with HCT-15 colon is more than 100 µM; with SN12C renal, more than 100 µM; with SK-MEL-2 melanoma, 40.6 µM; in the experiment with RPMI-8226 leukemia, more than 100 µM; in the experiment on MDA-N, more than 85.2 µM.
On to `c1ccc2c(Cc3c[nH]c4ccccc34)c[nH]c2c1`, for which the TGI is more than 100 µM in the experiment with UACC-62 melanoma; 42.8 µM in the experiment on OVCAR-8 ovarian; 63.3 µM with HS 578T breast; 30.2 µM in the experiment on HT29 colon; 49.8 µM with LOX IMVI melanoma; 36.8 µM in the experiment on BT-549 breast. The TGI was found to be 38.3 µM with PC-3 prostate; 35.2 µM in the experiment on TK-10 renal; 27.7 µM with UO-31 renal; 34.1 µM with M14 melanoma; 38.3 µM with NCI-H23 lung; 34.2 µM in the experiment with SR leukemia. For the same molecule, the TGI in the experiment on HCT-15 colon was more than 100 µM; in the experiment with SN12C renal, 31.7 µM; in the experiment on SK-MEL-2 melanoma, 52.6 µM; with RPMI-8226 leukemia, 68.8 µM; in the experiment on MDA-N, 41.5 µM.
Turning to `O=C(/C(Cl)=C/c1ccccc1)c1ccccc1`, the TGI in the experiment on UACC-62 melanoma amounted to 22.9 µM; in the experiment on OVCAR-8 ovarian it was 17.1 µM; in the experiment on HS 578T breast, 15 µM; with HT29 colon, 3.52 µM; with LOX IMVI melanoma, 8.8 µM; in the experiment on BT-549 breast, 6.49 µM. The TGI in the experiment with PC-3 prostate is 11.6 µM; with TK-10 renal, 11.7 µM; in the experiment with UO-31 renal, 5.49 µM; in the experiment with M14 melanoma it was 4.98 µM; with NCI-H23 lung, 26 µM; in the experiment with SR leukemia, 6.47 µM. Also, the TGI in the experiment with HCT-15 colon is 8.35 µM; with SN12C renal, 3.92 µM; in the experiment on SK-MEL-2 melanoma, 28.6 µM; with RPMI-8226 leukemia, more than 46.2 µM; with MDA-N, 4.52 µM.
With `CC(=O)NC1CCC(NC(=O)OC(C)(C)C)C(NC(=O)OC(C)(C)C)C1` (stereo unspecified), the TGI in the experiment on UACC-62 melanoma, with OVCAR-8 ovarian, in the experiment with HS 578T breast, in the experiment on HT29 colon, with LOX IMVI melanoma and with BT-549 breast was more than 100 µM each time. The TGI with PC-3 prostate, in the experiment on TK-10 renal, in the experiment with UO-31 renal, in the experiment on M14 melanoma, in the experiment on NCI-H23 lung and in the experiment on SR leukemia was more than 100 µM throughout. Moreover, the TGI with HCT-15 colon, in the experiment with SN12C renal, with SK-MEL-2 melanoma, in the experiment on RPMI-8226 leukemia and with MDA-N was more than 100 µM throughout.
